The supplement of paper PMC10011410

Columns and labels:
[1] = tested on: U-2 OS; experiment: cell painting activity score (Mahalanobis distance from DMSO wells); higher = stronger morphological phenotype; conditions: 24 h
Method: (§1)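 Cell painting in U-2 OS cells (384-well, about 1,500 cells per well), compound exposure 24 h, usually six 2-fold concentrations from 20 to 0.625 uM (some compounds higher or lower). Relative cell count is the cell number per well relative to DMSO wells. Activity score is the Mahalanobis distance of the morphological profile from DMSO control wells. Mean of four technical replicate plates.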

[2] = tested on: U-2 OS; experiment: relative cell count vs DMSO (cell painting) (fraction of DMSO control); higher = more cells remaining (less cytotoxic); conditions: 24 h
Method: as §1

[3] = tested on: U-2 OS; experiment: AUC of culture confluence over time (live-cell imaging) (AUC (confluence % x time)); higher = more confluent culture (less growth inhibition)
Method: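 Live-cell Incucyte imaging of U-2 OS cells in F-12K medium. Compounds were tested mostly at 5, 10 and 20 uM, and cells were imaged every 4 h for up to 60 h. Value is the area under the curve of phase-contrast confluence over time.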

Compound | cell painting activity score ([1]; 0.625 µM) | cell painting activity score ([1]; 1.25 µM) | cell painting activity score ([1]; 2.5 µM) | cell painting activity score ([1]; 5 µM) | cell painting activity score ([1]; 10 µM) | cell painting activity score ([1]; 20 µM) | relative cell count ([2]; 0.625 µM) | relative cell count ([2]; 1.25 µM) | relative cell count ([2]; 2.5 µM) | relative cell count ([2]; 5 µM) | relative cell count ([2]; 10 µM) | relative cell count ([2]; 20 µM) | AUC of culture confluence over time ([3]; 5 µM) | AUC of culture confluence over time ([3]; 10 µM) | AUC of culture confluence over time ([3]; 20 µM) | cell painting activity score ([1]; 40 µM) | cell painting activity score ([1]; 80 µM) | relative cell count ([2]; 40 µM) | relative cell count ([2]; 80 µM)
CCN(CC)CCCC(C)Nc1ccnc2cc(Cl)ccc12 (configuration not stated) | 4.84 | 5.94 | 4.8 | 4.43 | 4.73 | 6.72 | 1.2 | 1.12 | 1.09 | 1.19 | 1.08 | 1.09 | – | – | – | – | – | – | –
Nc1nc(Cl)nc2c1ncn2[C@H]1C[C@H](O)[C@@H](CO)O1 | 12.6 | 13.3 | 13.6 | 14 | 14.8 | 15.2 | 0.638 | 0.588 | 0.583 | 0.555 | 0.55 | 0.539 | 30.2 | 34.5 | 33.3 | – | – | – | –
O=C(O)CCCc1ccc(N(CCCl)CCCl)cc1 | 4.38 | 5.9 | 8 | 10.4 | 10.8 | 12.6 | 0.967 | 0.951 | 0.908 | 0.881 | 0.837 | 0.784 | 50.2 | 44.6 | 36.8 | – | – | – | –
C[C@H]1O[C@@H](O[C@H]2CC[C@@]3(C)[C@@H](CC[C@]4(C)[C@@H]3C=C[C@]35OC[C@@]6(CCC(C)(C)C[C@H]63)[C@@H](O)C[C@]54C)[C@]2(C)CO)[C@H](O)[C@@H](O[C@@H]2O[C@H](CO)[C@@H](O)[C@H](O)[C@H]2O)[C@H]1O | 5.15 | 6.79 | 10.6 | 9.69 | 27.5 | 29.4 | 0.96 | 0.765 | 0.155 | 0.3 | 0.0734 | 0.0918 | 35.7 | 16.7 | 15.5 | – | – | – | –
CNc1nc(-c2ccccc2)[n+](-c2ccccc2)s1 | 2.89 | 2.97 | 3.6 | 3.74 | 6.88 | 14.5 | 1 | 1.03 | 0.994 | 0.992 | 0.516 | 0.0974 | 36 | 44.4 | 42.5 | – | – | – | –
Oc1ccc2ccccc2c1SSc1c(O)ccc2ccccc12 | 5.34 | 4.94 | 7.79 | 8.22 | 9.14 | 14 | 0.996 | 0.924 | 0.926 | 0.901 | 0.812 | 0.245 | 44.4 | 37.5 | 18 | – | – | – | –
CS(=O)(=O)OCCCCOS(C)(=O)=O | 3.32 | 4.51 | 5.59 | 7.16 | 6.02 | 10 | 0.959 | 0.863 | 0.85 | 0.682 | 0.679 | 0.295 | 49.5 | 47.2 | 49.5 | – | – | – | –
CCc1c2c(nc3ccc(O)cc13)-c1cc3c(c(=O)n1C2)COC(=O)[C@]3(O)CC | 12 | 12.3 | 12.7 | 12.3 | 12.1 | 14.9 | 0.523 | 0.525 | 0.515 | 0.467 | 0.446 | 0.482 | – | – | – | – | – | – | –
COc1ccc2c(c[n+](C)c3c4cc5c(cc4ccc23)OCO5)c1OC | 5.1 | 3.72 | 14.6 | 14.5 | 13.8 | 16.2 | 0.994 | 1.03 | 1.01 | 0.982 | 0.695 | 0.0282 | 46.8 | 41 | 11.4 | – | – | – | –
CC1=C2C(=CO[C@H](C)[C@H]2C)C(=O)C(C(=O)O)=C1O | 4.49 | 5.94 | 4.77 | 8.7 | 6.33 | 10.3 | 0.985 | 0.942 | 0.951 | 0.893 | 0.935 | 0.793 | 48.9 | 45.6 | 42 | – | – | – | –
Oc1cc(O)cc(/C=C/c2ccc(O)c(O)c2)c1 | 3.37 | 3.39 | 4.93 | 8.04 | 10.9 | 13.7 | 1.06 | 1.01 | 0.995 | 0.951 | 0.958 | 0.886 | 49.3 | 53.9 | 45.4 | – | – | – | –
C[n+]1ccc(-c2cc[n+](CCCCCCCCCC[P+](c3ccccc3)(c3ccccc3)c3ccccc3)cc2)cc1.[I-].[I-].[I-] | 3.81 | 4.65 | 5.16 | 5.04 | 3.72 | 4.7 | 0.908 | 0.96 | 1 | 1.01 | 0.965 | 0.969 | 45.2 | 40 | 37.1 | – | – | – | –
O=NN(CCCl)C(=O)NC1CCCCC1 | 3.56 | 4.22 | 4.72 | 4.42 | 4.76 | 7.36 | 0.975 | 0.937 | 0.985 | 0.988 | 0.963 | 0.875 | 46.1 | 48.4 | 47.4 | – | – | – | –
NC(=O)c1ccc(I)c([N+](=O)[O-])c1 | 3.13 | 3.07 | 2.86 | 3.68 | 3.09 | 3.55 | 1.01 | 1.07 | 1.05 | 1.04 | 1.06 | 1.07 | 56.5 | 53.5 | 50.1 | – | – | – | –
C[C@@]1(CO)[C@H](O)CC[C@@]2(C)[C@H]1CC[C@H]1C[C@@H]3C[C@@]12CC[C@]3(O)CO | 13.5 | 12.7 | 14.8 | 14.8 | 16.2 | 15.8 | 0.886 | 0.788 | 0.683 | 0.659 | 0.621 | 0.622 | 30.1 | 29 | 28.6 | – | – | – | –
CCN(CCO)CCCOc1ccc2c(Nc3cc(CC(=O)Nc4cccc(F)c4)[nH]n3)ncnc2c1 | 14.3 | 14.4 | 14.3 | 14.3 | 14.5 | 14.9 | 0.771 | 0.757 | 0.76 | 0.8 | 0.788 | 0.757 | 30.4 | 32.1 | 29.6 | – | – | – | –
CCCCCCCCCCCCCCCCCCOP(=O)([O-])OC1CC[N+](C)(C)CC1 | 3.72 | 3.21 | 3.03 | 3.98 | 3.76 | 4.51 | 1.02 | 1.03 | 1.11 | 1.05 | 1.05 | 1.02 | – | – | – | – | – | – | –
CCN1C(=O)C=CC1=O | 4.77 | 5.69 | 7.04 | 9.18 | 20.6 | 26.6 | 0.938 | 0.928 | 0.891 | 0.724 | 0.254 | 0.0684 | – | – | – | 5.94 | 6.33 | 0.911 | 0.885
